From patent publication US20150073050A1 (Amarin Pharmaceuticals Ireland Limited, priority 2013, published 2015)

Experiment: Safety evaluation in the drug-drug interaction study (adverse events, clinical laboratory, vital signs, physical examination)
Format: in vivo, human
Conditions: omeprazole 40 mg with ethyl eicosapentaenoate 4 g/day, healthy subjects
From the text: Safety evaluations consisted of monitoring adverse events (AEs), clinical laboratory measurements (chemistry, hematology, and urinalysis), vital signs (systolic and diastolic blood pressure, heart rate, respiratory rate and oral body temperature), and physical examination findings.

SMILES	Premature discontinuation due to an adverse event	Safety and tolerability of concomitant administration	Serious adverse events
COc1ccc2[nH]c([S+]([O-])Cc3ncc(C)c(OC)c3C)nc2c1 (stereo not drawn) [Omeprazole, omeprazole]	no subjects prematurely discontinued	safe and well-tolerated	No serious adverse events
CC/C=C\C/C=C\C/C=C\C/C=C\C/C=C\CCCC(=O)OCC [ethyl eicosapentaenoate, all-cis eicosa-5,8,11,14,17-pentaenoic acid ethyl ester]	no subjects prematurely discontinued	safe and well-tolerated	No serious adverse events
